Data published in ChEMBL document CHEMBL5727622, “Heterocyclic compounds used as FGFR inhibitors” (2020).

Columns and labels:
[1] = target: Fibroblast growth factor receptor 3 (Homo sapiens, UniProt P22607); assay: Inhibition Assay: FGFR3: The in vitro activity of FGFR3 was determined by assaying the phosphorylation level of the substrate in the kinase reaction, by means of an HTRF kinase assay kit. The reaction buffer comprised the following components: 5-fold diluted Enzymatic buffer/kinase 5×(main ingredient: 50 mM HEPES, pH 7.0), 5 mM MgCl2, 1 mM DTT; the human recombinant FGFR3 catalytic structural domain protein (amino acids 399-806), diluted with the reaction buffer to a 0.3 ng/μL kinase solution; the substrate reaction solution comprised a biotin labeled tyrosine kinase substrate diluted with the reaction buffer to 1000 nM, and 90 μM ATP, and the assay solution comprised an Eu3+ labeled cage-shaped antibody diluted with the assay buffer to 0.125 ng/μL, and 62.5 nM streptavidin labeled XL665.
Sequence of Fibroblast growth factor receptor 3 (P22607 whole entry, the tested form may be a part): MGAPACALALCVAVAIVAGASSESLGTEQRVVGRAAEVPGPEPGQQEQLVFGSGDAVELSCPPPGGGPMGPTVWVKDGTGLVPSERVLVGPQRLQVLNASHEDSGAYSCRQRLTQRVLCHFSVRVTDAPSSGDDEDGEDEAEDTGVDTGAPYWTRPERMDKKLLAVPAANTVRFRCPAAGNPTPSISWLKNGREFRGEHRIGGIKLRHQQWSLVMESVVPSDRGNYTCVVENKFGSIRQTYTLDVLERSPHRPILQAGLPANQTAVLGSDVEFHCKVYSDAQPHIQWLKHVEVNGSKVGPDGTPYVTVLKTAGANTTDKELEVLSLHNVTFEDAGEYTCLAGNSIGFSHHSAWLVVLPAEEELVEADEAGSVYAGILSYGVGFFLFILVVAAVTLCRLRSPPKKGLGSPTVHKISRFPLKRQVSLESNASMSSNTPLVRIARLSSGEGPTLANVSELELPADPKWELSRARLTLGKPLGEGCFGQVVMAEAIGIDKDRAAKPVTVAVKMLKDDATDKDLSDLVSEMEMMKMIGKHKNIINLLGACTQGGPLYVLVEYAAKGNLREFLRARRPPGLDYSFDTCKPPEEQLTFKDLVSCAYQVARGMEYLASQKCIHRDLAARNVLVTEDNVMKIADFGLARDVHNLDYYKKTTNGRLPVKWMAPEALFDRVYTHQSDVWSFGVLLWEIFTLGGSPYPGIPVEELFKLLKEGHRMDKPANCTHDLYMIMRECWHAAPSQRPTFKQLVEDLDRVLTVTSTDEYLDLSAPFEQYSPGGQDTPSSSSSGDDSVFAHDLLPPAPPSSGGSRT

[2] = target: Fibroblast growth factor receptor 1 (Homo sapiens, UniProt P11362); assay: Inhibition Assay: FGFR1: The in vitro activity of FGFR1 was determined by assaying the phosphorylation level of the substrate in the kinase reaction, by means of an HTRF kinase assay kit. The reaction buffer comprised the following components: 5-fold diluted Enzymatic buffer/kinase 5× (main ingredient: 50 mM HEPES, pH 7.0), 5 mM MgCl2, 1 mM DTT; the human recombinant FGFR1 catalytic structural domain protein (amino acids 308-731) was purified by the company itself, diluted with the reaction buffer to a 0.6 ng/μL kinase solution; the substrate reaction solution comprised a biotin labeled tyrosine kinase substrate diluted with the reaction buffer to 400 nM , and 40 μM ATP, and the assay solution comprised an Eu3+ labeled cage-shaped antibody diluted with the assay buffer to 0.125 ng/μL, and 25 nM streptavidin labeled XL665.
Sequence of Fibroblast growth factor receptor 1 (P11362 whole entry, the tested form may be a part): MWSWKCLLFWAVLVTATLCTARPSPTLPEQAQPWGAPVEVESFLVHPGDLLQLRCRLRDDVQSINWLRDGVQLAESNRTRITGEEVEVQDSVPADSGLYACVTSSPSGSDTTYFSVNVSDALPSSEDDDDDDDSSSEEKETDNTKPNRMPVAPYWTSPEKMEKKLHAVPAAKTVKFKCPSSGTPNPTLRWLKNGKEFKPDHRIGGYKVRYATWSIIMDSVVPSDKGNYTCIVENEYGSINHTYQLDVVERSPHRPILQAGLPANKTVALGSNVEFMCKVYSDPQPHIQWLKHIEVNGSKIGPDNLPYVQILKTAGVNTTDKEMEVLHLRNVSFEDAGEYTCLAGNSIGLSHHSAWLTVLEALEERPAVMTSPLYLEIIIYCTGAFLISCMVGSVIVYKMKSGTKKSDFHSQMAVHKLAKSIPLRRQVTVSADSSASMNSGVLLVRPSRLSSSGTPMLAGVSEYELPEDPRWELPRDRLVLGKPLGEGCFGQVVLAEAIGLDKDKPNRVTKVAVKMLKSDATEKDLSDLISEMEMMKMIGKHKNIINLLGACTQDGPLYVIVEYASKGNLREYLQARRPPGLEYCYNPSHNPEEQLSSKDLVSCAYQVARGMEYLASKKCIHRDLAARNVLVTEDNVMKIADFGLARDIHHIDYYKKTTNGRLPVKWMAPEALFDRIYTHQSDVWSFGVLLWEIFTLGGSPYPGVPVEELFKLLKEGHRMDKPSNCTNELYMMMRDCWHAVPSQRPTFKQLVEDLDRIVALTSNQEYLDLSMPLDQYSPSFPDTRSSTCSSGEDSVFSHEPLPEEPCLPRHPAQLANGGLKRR

[3] = target: Fibroblast growth factor receptor 2 (Homo sapiens, UniProt P21802); assay: Inhibition Assay: FGFR2: The in vitro activity of FGFR2 was determined by assaying the phosphorylation level of the substrate in the kinase reaction, by means of an HTRF kinase assay kit. The reaction buffer comprised the following components: 5-fold diluted Enzymatic buffer/kinase 5× (main ingredient: 50 mM HEPES, pH 7.0), 5 mM MgCl2, 1 mM DTT; the human recombinant FGFR2 catalytic structural domain protein (amino acids 400-821) was commercially available from Beijing Sino Biological Inc., diluted with the reaction buffer to a 0.045 ng/μL kinase solution; the substrate reaction solution comprised a biotin labeled tyrosine kinase substrate diluted with the reaction buffer to 800 nM, and 50 μM ATP, and the assay solution comprised an Eu3+ labeled cage-shaped antibody (Cisbio, Catalog number 61T66KLB) diluted with the assay buffer (Cisbio, Catalog number 62SDBRDF) to 0.125 ng/μL, and 50 nM streptavidin labeled XL665.
Sequence of Fibroblast growth factor receptor 2 (P21802 whole entry, the tested form may be a part): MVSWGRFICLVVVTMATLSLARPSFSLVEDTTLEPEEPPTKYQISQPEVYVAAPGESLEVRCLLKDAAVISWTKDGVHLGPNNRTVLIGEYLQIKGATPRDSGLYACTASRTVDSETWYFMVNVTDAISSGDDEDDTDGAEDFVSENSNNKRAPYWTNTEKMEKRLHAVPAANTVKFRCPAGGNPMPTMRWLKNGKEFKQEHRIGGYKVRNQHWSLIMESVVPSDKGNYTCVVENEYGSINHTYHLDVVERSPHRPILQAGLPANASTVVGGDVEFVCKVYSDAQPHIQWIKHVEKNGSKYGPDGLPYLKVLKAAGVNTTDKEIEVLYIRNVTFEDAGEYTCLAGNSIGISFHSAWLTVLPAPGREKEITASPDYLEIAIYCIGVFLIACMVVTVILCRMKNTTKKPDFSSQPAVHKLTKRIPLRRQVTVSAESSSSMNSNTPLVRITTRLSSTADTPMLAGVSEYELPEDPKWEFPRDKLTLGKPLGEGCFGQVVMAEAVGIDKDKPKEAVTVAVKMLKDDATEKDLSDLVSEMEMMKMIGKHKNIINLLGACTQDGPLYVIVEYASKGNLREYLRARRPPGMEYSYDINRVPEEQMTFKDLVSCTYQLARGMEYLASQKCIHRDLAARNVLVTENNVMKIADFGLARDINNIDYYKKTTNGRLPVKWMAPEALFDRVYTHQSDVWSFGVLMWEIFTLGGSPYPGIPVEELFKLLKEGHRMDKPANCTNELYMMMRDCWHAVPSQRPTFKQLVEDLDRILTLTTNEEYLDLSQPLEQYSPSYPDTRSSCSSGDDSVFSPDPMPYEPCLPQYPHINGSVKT

[4] = target: Fibroblast growth factor receptor 4 (Homo sapiens, UniProt P22455); assay: Inhibition Assay: FGFR4:The in vitro activity of FGFR4 was determined by assaying the phosphorylation level of the substrate in the kinase reaction, by means of an HTRF kinase assay kit. The reaction buffer comprised the following components: 5-fold diluted Enzymatic buffer/kinase 5×(main ingredient: 50 mM HEPES, pH 7.0), 5 mM MgCl2, 1 mM DTT; the human recombinant FGFR4 catalytic structural domain protein (amino acids 460-802), diluted with the reaction buffer to a 0.5 ng/μL kinase solution; the substrate reaction solution comprised a biotin labeled tyrosine kinase substrate diluted with the reaction buffer to 500 nM , and 90 μM ATP, and the assay solution comprised an Eu3+ labeled cage-shaped antibody diluted with the assay buffer to 0.125 ng/μL, and 31.25 nM streptavidin labeled XL665).
Sequence of Fibroblast growth factor receptor 4 (P22455 whole entry, the tested form may be a part): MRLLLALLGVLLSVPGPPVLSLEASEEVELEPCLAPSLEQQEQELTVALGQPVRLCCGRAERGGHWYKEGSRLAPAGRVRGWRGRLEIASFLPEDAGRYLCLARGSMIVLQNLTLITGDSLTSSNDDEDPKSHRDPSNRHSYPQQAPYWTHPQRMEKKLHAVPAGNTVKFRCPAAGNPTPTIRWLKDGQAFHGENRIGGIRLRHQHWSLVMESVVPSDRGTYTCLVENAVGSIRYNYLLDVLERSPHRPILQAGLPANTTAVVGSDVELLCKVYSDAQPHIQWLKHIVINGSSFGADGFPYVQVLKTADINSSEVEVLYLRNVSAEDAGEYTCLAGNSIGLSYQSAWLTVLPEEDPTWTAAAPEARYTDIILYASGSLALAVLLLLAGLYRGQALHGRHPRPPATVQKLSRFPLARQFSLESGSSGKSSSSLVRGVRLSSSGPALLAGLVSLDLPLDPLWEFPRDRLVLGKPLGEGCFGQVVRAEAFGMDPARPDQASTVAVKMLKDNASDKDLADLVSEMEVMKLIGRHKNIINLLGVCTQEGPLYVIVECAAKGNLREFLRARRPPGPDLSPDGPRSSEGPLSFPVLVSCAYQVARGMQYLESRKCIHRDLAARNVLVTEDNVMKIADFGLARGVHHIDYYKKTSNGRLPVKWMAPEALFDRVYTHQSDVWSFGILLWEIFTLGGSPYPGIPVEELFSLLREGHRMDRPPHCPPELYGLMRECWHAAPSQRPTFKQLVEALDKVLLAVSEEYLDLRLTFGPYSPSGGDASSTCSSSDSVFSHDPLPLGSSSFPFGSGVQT

Compound | IC50 [1] | IC50 [2] | IC50 [3] | IC50 [4]
CN1CCN(Cc2ccc(N(C)C(=O)Nc3cc(Cl)c(C#N)cn3)nc2C=O)C(=O)C1 | > 1 µM | > 1 µM | > 1 µM | 
CC(C)Oc1cc(NC(=O)N(C)c2ccc(CN3CCN(C)CC3=O)c(C=O)n2)ncc1C#N | > 1 µM | > 1 µM | > 1 µM | < 0.01 µM
COCCOc1cc(NC(=O)N(C)c2ccc(CN3CCOCC3=O)c(C=O)n2)ncc1C#N | > 1 µM | > 1 µM | > 1 µM | < 0.01 µM
COCCNc1cc(NC(=O)N(C)c2ccc(CN3CCOCC3=O)c(C=O)n2)ncc1C#N | > 1 µM | > 1 µM | > 1 µM | < 0.01 µM
C[C@@H](CO)Oc1cc(NC(=O)N(C)c2ccc(CN3CCN(C)CC3=O)c(C=O)n2)ncc1C#N | > 1 µM | > 1 µM | > 1 µM | < 0.01 µM
COC[C@@H](C)Oc1cc(NC(=O)N(C)c2ccc(CN3CCN(C)CC3=O)c(C=O)n2)ncc1C#N | > 1 µM | > 1 µM | > 1 µM | < 0.01 µM

The remaining lines, values ahead:

IC50 [1] | IC50 [2] | IC50 [3] | IC50 [4] | Compound
> 1 µM | > 1 µM | > 1 µM | < 0.01 µM | CC(C)Nc1cc(NC(=O)N(C)c2ccc(CN3CCOCC3=O)c(C=O)n2)ncc1C#N
> 1 µM | > 1 µM | > 1 µM | < 0.01 µM | CC(C)Nc1cc(NC(=O)N(C)c2ccc(CN3CCN(C)CC3=O)c(C=O)n2)ncc1C#N
> 1 µM | > 1 µM | > 1 µM | < 0.01 µM | COC[C@H](C)Oc1cc(NC(=O)N(C)c2ccc(CN3CCN(C)CC3=O)c(C=O)n2)ncc1C#N
